From US11026925B2, “Angiotensin II receptor antagonist metabolite and NEP inhibitor composite and preparation method thereof” (SHENZHEN SALUBRIS PHARMACEUTICALS CO. LTD, priority 2016, dated 2021)
Counter-ions that a name gives are not always drawn.

Tests used:
[1] = test system: animal model with heart failure (ligation of left anterior descending coronary artery); assay: anti-heart failure activity (short term, acute) in animal model (rat); format: in vivo; details: for mAP / mLVP: 7 days before and 3 days after ligation, measured Day 11; for improvement effect on mAP and mLVP / effect on lowering blood pressure compared with untreated animal group: short-term administration, rat
Protocol: The animal model with heart failure using ligation of left anterior descending coronary artery was prepared, the therapeutic drug to the modeling animal was administrated by pre-gavage, once per day for 7 continuous days, and was continuously administrated for three days after successful modeling.
SD male rats aged 6-week old;
Pre-test preparation: All animals were divided into 5 groups by randomized blocks, 6 rats in each group, and the animals were acclimated for 3 days before test treatment; Experimental process: Therapeutic drug was given to the test animals by pre-gavage, once per day for 7 continuous days. Operation was conducted on Day 8, the animals were anesthetized, trachea was connected to a respirator, electrocardiograph (ECG) was connected for real-time recording, thoracic cavity was opened between the 3rd and 4th ribs, left anterior descending coronary artery was ligated, ST segment elevation of ECG indicated successful ligation, the thoracic cavity was closed, and the skin was sutured;
The animals were anesthetized on Day 11, ECG was measured, and then arterial pressure and left ventricular pressure were measured by carotid artery intubation.

[2] = test system: animal model with heart failure (ligation of left anterior descending coronary artery); assay: anti-heart failure activity (long term, chronic) in animal model (rat); format: in vivo
[3] = singly used as medication; cited from earlier work
[4] = Flowability (angle of repose, bulk density); format: physicochemical
[5] = test system: patients with heart failure; details: compared with the enalapril treatment group; cited from earlier work
[6] = Hygroscopicity (plain sample) at RH 75% and RH 85%; format: physicochemical
[7] = 30 mg/kg gavage once per day for 4 weeks
[8] = samples crushed to particle size distribution similar to LCZ696
[9] = 68 mg/kg gavage once per day for 4 weeks

CCOC(=O)[C@H](C)C[C@@H](Cc1ccc(-c2ccccc2)cc1)NC(=O)CCC(=O)O [AHU377 calcium salt, AHU377 (Sacubitril, CAS: 149709-62-6)]
mAP ([1]; 30 mg/kg gavage once per day): 104 mmHg | mLVP ([1]; 30 mg/kg gavage once per day): 63 mmHg | improvement effect on mAP and mLVP / effect on lowering blood pressure compared with untreated animal group [1]: not significant | Ejection fraction [2, 7]: 53.3% | Heart rate [2, 7]: 378.9 beats/min | Myocardial fibrosis [2, 7]: 54.88% | Thickness of heart wall [2, 7]: 0.137 cm

CCCCc1nc(Cl)c(C(=O)O)n1Cc1ccc(-c2ccccc2-c2nnn[nH]2)cc1 [EXP3174]
mAP ([1]; 30 mg/kg gavage once per day): 106 mmHg | mLVP ([1]; 30 mg/kg gavage once per day): 61 mmHg | improvement effect on mAP and mLVP / effect on lowering blood pressure compared with untreated animal group [1]: not significant | Ejection fraction [2, 7]: 47.9% | Heart rate [2, 7]: 427.8 beats/min | Myocardial fibrosis [2, 7]: 62.89% | Thickness of heart wall [2, 7]: 0.136 cm | bioavailability [3]: low bioavailability

CCCCC(=O)N(Cc1ccc(-c2ccccc2-c2nnn[n-]2)cc1)[C@H](C(=O)[O-])C(C)C.CCOC(=O)[C@H](C)C[C@@H](Cc1ccc(-c2ccccc2)cc1)NC(=O)CCC(=O)[O-].O.[Na+].[Na+].[Na+] [LCZ696]
mAP ([1]; 68 mg/kg gavage once per day): 78 mmHg | mLVP ([1]; 68 mg/kg gavage once per day): 44 mmHg | electrostatic phenomenon of powder ([4]; powder property test): electrostatic phenomenon | flowability (in words) ([4]; powder property test): hardly flowable | Angle of repose [4, 8]: 57.35 ° | Bulk density [4, 8]: 0.527 g/mL | reduction of hospitalization rate of patients with heart failure [5]: 21% | state of test samples at the end of the hygroscopicity experiment ([6]; RH 75% and RH 85%, end of experiment): completely deliquescent | water content, RH 75% Day 0 ([6]; RH 75%, Day 0, plain sample): 4.9% | water content, RH 85% Day 0 ([6]; RH 85%, Day 0, plain sample): 4.9% | Ejection fraction [2, 9]: 70.6% | Heart rate [2, 9]: 412.9 beats/min | Myocardial fibrosis [2, 9]: 11.51%
